Our source for the MED values is ChEMBL document CHEMBL3045621, “Synthesis and Structure-activity Relationships of Herbicidal Thiophene Sulfonylurea Compounds” (J Pestic Sci, 1997).

Structures are written as SMILES.

The test system of data set [1] is Oryza sativa. The data set can be described thus: Toxicity in two leaf stage of Oryza sativa var. Nihonbare (rice) assessed as dose required to selectivity to Oryza sativa. Type of data set: organism-based. The conditions noted are these: in vivo.
Data set [2] has as its system Schoenoplectiella juncoides. The data set is described as follows: Herbicidal activity against Schoenoplectiella juncoides assessed as dose required to cause sufficient herbicidal activity after 5 to 7 days. It is filed as functional.
The test system of data set [3] is Echinochloa oryzicola. The data set can be described thus: Herbicidal activity against Echinochloa oryzicola assessed as dose required to cause sufficient herbicidal activity. It is filed as functional.
Data set [4] deals with Sagittaria pygmaea. The data set is described as follows: Herbicidal activity against Sagittaria pygmaea assessed as dose required to cause sufficient herbicidal activity after 5 to 7 days. Type of data set: functional.

Regarding `COc1cc(OC)nc(NC(=O)NS(=O)(=O)c2sccc2COCC2CCCO2)n1` (centres undefined), the MED in data set [1] stood at 0.625 g/acre; in data set [2] it was 5 g/acre; in data set [3], 5 g/acre; in data set [4], 10 g/acre.
In the case of `CCN(C)Cc1ccsc1S(=O)(=O)NC(=O)Nc1nc(OC)cc(OC)n1`, the MED in data set [1] is 20 g/acre; in data set [2] it was 10 g/acre; in data set [3], 20 g/acre; in data set [4] it was 5 g/acre.
Turning to `COC(=O)NCc1ccsc1S(=O)(=O)NC(=O)Nc1nc(OC)cc(OC)n1`, the MED is listed as 2.5 g/acre in data set [1], 1.25 g/acre in data set [2], 20 g/acre in data set [3] and 0.313 g/acre in data set [4].
Taken in the same sequence, the figures for `CNC(=O)NCc1ccsc1S(=O)(=O)NC(=O)Nc1nc(OC)cc(OC)n1` were 2.5 g/acre, 20 g/acre, 10 g/acre and 10 g/acre.
For `COc1cc(OC)nc(NC(=O)NS(=O)(=O)c2sccc2CNC(=O)CCl)n1`, the MED came out at 5 g/acre in data set [1], 10 g/acre in data set [2], 10 g/acre in data set [3] and 5 g/acre in data set [4].
Consider `COc1cc(OC)nc(NC(=O)NS(=O)(=O)c2sccc2Cn2cc(C(F)(F)F)ccc2=O)n1`, for which the MED in data set [1], in data set [2], in data set [3] and in data set [4] was 40 g/acre each time.
In the case of `CCOCc1ccsc1S(=O)(=O)NC(=O)Nc1nc(OC)cc(OC)n1`, the MED worked out at 0.156 g/acre in data set [1], 0.0391 g/acre in data set [2], 0.313 g/acre in data set [3] and 0.0391 g/acre in data set [4].
Take `COc1cc(OC)nc(NC(=O)NS(=O)(=O)c2sccc2CSC#N)n1`: the MED in data set [1] is given as 0.313 g/acre; in data set [2], 1.25 g/acre; in data set [3] it was 1.25 g/acre; in data set [4], 0.625 g/acre.
For `COC(=O)Cc1ccsc1S(=O)(=O)NC(=O)Nc1nc(OC)cc(OC)n1`, the MED in data set [1] is given as 0.156 g/acre; in data set [2] it was 1.25 g/acre; in data set [3], 1.25 g/acre; in data set [4] it was 0.313 g/acre.
`COc1cc(OC)nc(NC(=O)NS(=O)(=O)c2sccc2COc2ccccc2)n1`: the MED in data set [1] is listed as 0.625 g/acre; in data set [2], 1.25 g/acre; in data set [3], 2.5 g/acre; in data set [4], 0.313 g/acre.
`COc1cc(OC)nc(NC(=O)NS(=O)(=O)c2sccc2COc2cccc(C(F)(F)F)c2)n1`: the MED in data set [1] came out at 0.625 g/acre; in data set [2], 20 g/acre; in data set [3], 5 g/acre; in data set [4] it was 20 g/acre.
